Laboratory results from ChEMBL document CHEMBL4038320 (J Med Chem, 2017).

Columns and labels:
CYP3A4 = CYP3A4 (Homo sapiens, UniProt P08684); assay: Inhibition of CYP3A4 (unknown origin) at 10 uM; type: ADME
[1] = molecular target: Protein kinase C alpha type (Homo sapiens, UniProt P17252); assay: Inhibition of human PKCalpha active using MBP as substrate after 60 mins in presence of [gamma-32]ATP by scintillation counting
[2] = molecular target: Rho-associated protein kinase 2 (Homo sapiens, UniProt O75116); assay: Inhibition of recombinant human N-terminal GST-tagged ROCK2 catalytic domain (1 to 553 residues) expressed in baculovirus expression system using STK 2-biotin as substrate measured after 60 mins by HTRF/TR-FRET assay
Chain of Rho-associated protein kinase 2 (O75116 whole entry, the tested form may be a part): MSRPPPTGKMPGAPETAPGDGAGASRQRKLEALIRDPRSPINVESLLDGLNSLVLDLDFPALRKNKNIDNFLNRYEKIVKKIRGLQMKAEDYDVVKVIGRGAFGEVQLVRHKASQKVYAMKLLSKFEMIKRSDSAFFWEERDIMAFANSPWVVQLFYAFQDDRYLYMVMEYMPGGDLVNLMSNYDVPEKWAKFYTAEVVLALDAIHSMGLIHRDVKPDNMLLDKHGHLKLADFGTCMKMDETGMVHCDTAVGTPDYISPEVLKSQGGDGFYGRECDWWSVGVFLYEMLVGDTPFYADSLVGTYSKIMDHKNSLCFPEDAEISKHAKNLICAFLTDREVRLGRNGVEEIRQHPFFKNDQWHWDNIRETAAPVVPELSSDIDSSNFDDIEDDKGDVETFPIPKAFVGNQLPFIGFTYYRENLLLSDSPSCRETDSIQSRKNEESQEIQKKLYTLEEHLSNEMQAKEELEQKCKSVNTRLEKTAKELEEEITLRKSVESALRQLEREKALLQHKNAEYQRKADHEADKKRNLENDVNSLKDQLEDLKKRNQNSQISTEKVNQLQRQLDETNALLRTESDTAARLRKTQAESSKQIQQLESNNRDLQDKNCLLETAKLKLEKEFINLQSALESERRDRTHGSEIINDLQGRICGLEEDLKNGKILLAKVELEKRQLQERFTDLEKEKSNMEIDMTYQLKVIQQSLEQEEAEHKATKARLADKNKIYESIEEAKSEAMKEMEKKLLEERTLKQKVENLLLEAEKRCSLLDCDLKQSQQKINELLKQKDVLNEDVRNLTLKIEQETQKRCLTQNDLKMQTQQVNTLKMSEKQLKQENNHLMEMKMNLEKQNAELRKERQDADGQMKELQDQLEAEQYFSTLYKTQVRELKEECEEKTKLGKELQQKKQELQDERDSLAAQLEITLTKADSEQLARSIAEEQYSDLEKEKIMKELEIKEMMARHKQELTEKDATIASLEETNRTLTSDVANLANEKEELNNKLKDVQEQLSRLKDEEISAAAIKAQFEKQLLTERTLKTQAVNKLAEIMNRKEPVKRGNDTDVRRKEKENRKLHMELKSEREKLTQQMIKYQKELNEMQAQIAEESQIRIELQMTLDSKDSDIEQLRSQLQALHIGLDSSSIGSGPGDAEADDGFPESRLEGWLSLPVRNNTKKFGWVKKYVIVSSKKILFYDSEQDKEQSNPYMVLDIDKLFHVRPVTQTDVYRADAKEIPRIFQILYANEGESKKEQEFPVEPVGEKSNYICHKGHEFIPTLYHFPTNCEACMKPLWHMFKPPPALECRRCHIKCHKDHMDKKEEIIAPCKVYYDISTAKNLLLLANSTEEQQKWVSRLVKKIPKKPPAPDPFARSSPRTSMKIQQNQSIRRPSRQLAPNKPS

Chain of CYP3A4 (P08684 whole entry): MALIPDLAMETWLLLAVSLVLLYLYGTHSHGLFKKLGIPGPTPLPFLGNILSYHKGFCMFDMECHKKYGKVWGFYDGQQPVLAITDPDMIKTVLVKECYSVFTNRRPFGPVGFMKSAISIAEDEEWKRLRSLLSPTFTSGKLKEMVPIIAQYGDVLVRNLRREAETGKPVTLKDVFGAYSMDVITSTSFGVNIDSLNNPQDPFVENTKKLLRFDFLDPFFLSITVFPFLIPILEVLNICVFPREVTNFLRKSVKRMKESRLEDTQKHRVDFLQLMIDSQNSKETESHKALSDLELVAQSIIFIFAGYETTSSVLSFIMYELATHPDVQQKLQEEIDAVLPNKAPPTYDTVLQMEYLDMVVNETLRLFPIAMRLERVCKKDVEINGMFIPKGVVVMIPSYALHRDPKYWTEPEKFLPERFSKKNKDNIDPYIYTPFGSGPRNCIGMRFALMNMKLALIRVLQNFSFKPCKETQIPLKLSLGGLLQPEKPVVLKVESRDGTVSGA

SMILES | inhibition at 10 µM (CYP3A4) [%] | IC50 [1] [nM] | IC50 [2] [nM]
CCCn1c(CNc2cccc(C(=O)NCc3c(F)cccc3F)c2)nnc1-c1ccncn1 | 51 | 250 | 190
COCCn1c(CNc2cccc(C(=O)NCc3ccccc3)c2)nnc1-c1ccncc1 | 57 | 7400 | 320
O=C(NCc1ccccc1C(F)(F)F)c1cccc(NCc2nnc(-c3ccncc3)n2CCO)c1 | 79 | 7600 | 320
CCCn1c(CNc2cccc(C(=O)NCc3ccccc3C(F)(F)F)c2)nnc1-c1ccncn1 | 81 | 1200 | 140
CC(C)n1c(CNc2cccc(C(=O)NCc3ccccc3)c2)nnc1-c1ccncc1 | 50 | 4800 | 260
Cn1c(CNc2cccc(C(=O)NCc3ccccc3C(F)(F)F)c2)nnc1-c1ccncn1 | 63 | > 10000 | 720
Cn1c(CNc2cccc(C(=O)NCc3c(F)cccc3F)c2)nnc1-c1ccncn1 | 24 | > 10000 | 1900
